Laboratory results published in patent publication US10112907B2, “Substituted indazoles for treating tendon and/or ligament injuries” (NOVARTIS AG, priority 2016, dated 2018).

What follows are molecules tested on Scleraxis (Scx) gene transcriptional activation in TT-D6 Scx-luciferase (ScxL) cell line (assay: SCX-LUC in vitro assay (Scx-luciferase reporter)). Settings: Mus musculus, 96 h; Table 3; four days; read-out: Scx-Luc (EC50 μM).
Assay type: cell-based

Row | Structure (SMILES) | EC50
1 | Cc1cc(S(=O)(=O)NC2CC(F)(F)C2)ccc1-c1ccc2[nH]nc(N)c2c1Cl [Example 66, 4-(3-amino-4-chloro-1H-indazol-5-yl)-N-(3,3-difluorocyclobutyl)-3-methylbenzenesulfonamide] | 1.08 µM
2 | Cc1cc(S(=O)(=O)N[C@@H]2CCC[C@@H]2O)ccc1-c1ccc2[nH]nc(N)c2c1F [Example 75, 4-(3-amino-4-fluoro-1H-indazol-5-yl)-N-((1R,2S)-2-hydroxycyclopentyl)-3-methylbenzenesulfonamide] | 0.359 µM
3 | Nc1n[nH]c2ccc(-c3ccc(S(=O)(=O)N[C@@H]4CCC[C@@H]4O)cc3Cl)c(F)c12 [Example 76, 4-(3-amino-4-fluoro-1H-indazol-5-yl)-3-chloro-N-((1R,2S)-2-hydroxycyclopentyl)benzenesulfonamide] | 0.171 µM
4 | Cc1cc(S(=O)(=O)N2CC(C)(O)C2)ccc1-c1ccc2[nH]nc(N)c2c1C [Example 13, 1-((4-(3-amino-4-methyl-1H-indazol-5-yl)-3-methylphenyl)sulfonyl)-3-methylazetidin-3-ol] | 2.33 µM
5 | Cc1cc(S(=O)(=O)N[C@@H]2CCC[C@H]2O)ccc1-c1ccc2[nH]nc(N)c2c1C [Example 15, 4-(3-amino-4-methyl-1H-indazol-5-yl)-N-((1R,2R)-2-hydroxycyclopentyl)-3-methylbenzenesulfonamide] | 3.05 µM
6 | Cc1cc(-c2ccc3[nH]nc(N)c3c2C)ccc1S(=O)(=O)N1CC(F)(F)C[C@H]1CO [Example 91, (S)-(1-((4-(3-amino-4-methyl-1H-indazol-5-yl)-2-methylphenyl)sulfonyl)-4,4-difluoropyrrolidin-2-yl)methanol] | 2.91 µM
7 | Cc1cc(S(=O)(=O)N2CCC(F)(F)C2)ccc1-c1ccc2[nH]nc(N)c2c1C [Example 77, 5-(4-((3,3-difluoropyrrolidin-1-yl)sulfonyl)-2-methylphenyl)-4-methyl-1H-indazol-3-amine] | 0.692 µM
8 | Cc1c(-c2ccc(S(=O)(=O)N[C@@H]3CCC[C@@H]3O)cc2Cl)ccc2[nH]nc(N)c12 [Example 39, 4-(3-amino-4-methyl-1H-indazol-5-yl)-3-chloro-N-((1R,2S)-2-hydroxycyclopentyl)benzenesulfonamide] | 0.362 µM
9 | Cc1cc(S(=O)(=O)N2CCC[C@H]2CO)ccc1-c1ccc2[nH]nc(N)c2c1Cl [Example 28, (S)-(1-((4-(3-amino-4-chloro-1H-indazol-5-yl)-3-methylphenyl)sulfonyl)pyrrolidin-2-yl)methanol] | 0.436 µM
10 | Cc1c(-c2ccc(S(=O)(=O)N3CCC(O)C3)cc2F)ccc2[nH]nc(N)c12 (stereo not shown) [Example 3, 1-((4-(3-amino-4-methyl-1H-indazol-5-yl)-3-fluorophenyl)sulfonyl)pyrrolidin-3-ol] | 2.83 µM
11 | Cc1cc(S(=O)(=O)N[C@@H]2CCC[C@@H]2O)ccc1-c1ccc2[nH]nc(N)c2c1Cl [Example 29, 4-(3-amino-4-chloro-1H-indazol-5-yl)-N-((1R,2S)-2-hydroxycyclopentyl)-3-methylbenzenesulfonamide] | 0.277 µM
12 | Cc1c(-c2ccc(S(=O)(=O)N3CC(F)(F)C[C@H]3CO)cc2F)ccc2[nH]nc(N)c12 [Example 42, (S)-(1-((4-(3-amino-4-methyl-1H-indazol-5-yl)-3-fluorophenyl)sulfonyl)-4,4-difluoropyrrolidin-2-yl)methanol] | 0.814 µM
13 | COc1c(-c2ccc(S(=O)(=O)N3CC(F)(F)C[C@H]3CO)cc2Cl)ccc2[nH]nc(N)c12 [Example 86, (S)-(1-((4-(3-amino-4-methoxy-1H-indazol-5-yl)-3-chlorophenyl)sulfonyl)-4,4-difluoropyrrolidin-2-yl)methanol] | 0.731 µM
14 | Cc1cc(S(=O)(=O)N2CCC[C@@H]2CO)ccc1-c1ccc2[nH]nc(N)c2c1C [Example 20, (R)-(1-((4-(3-amino-4-methyl-1H-indazol-5-yl)-3-methylphenyl)sulfonyl)pyrrolidin-2-yl)methanol] | 0.723 µM
15 | Cc1cc(S(=O)(=O)N[C@H]2CCC[C@@]2(C)O)ccc1-c1ccc2[nH]nc(N)c2c1C [Example 59, 4-(3-amino-4-methyl-1H-indazol-5-yl)-N-((1S,2R)-2-hydroxy-2-methylcyclopentyl)-3-methylbenzenesulfonamide] | 3.32 µM
16 | Cc1cc(S(=O)(=O)N2CC(C#N)C2)ccc1-c1ccc2[nH]nc(N)c2c1C [Example 22, 1-((4-(3-amino-4-methyl-1H-indazol-5-yl)-3-methylphenyl)sulfonyl)azetidine-3-carbonitrile] | 0.879 µM
17 | Cc1c(-c2ccc(S(=O)(=O)N3CC(C)(C)C3)cc2Cl)ccc2[nH]nc(N)c12 [Example 1, 5-(2-chloro-4-((3,3-dimethylazetidin-1-yl)sulfonyl)phenyl)-4-methyl-1H-indazol-3-amine] | 0.773 µM
18 | Nc1n[nH]c2ccc(-c3ccc(S(=O)(=O)N[C@H]4C[C@](O)(C(F)(F)F)C4)cc3Cl)c(Cl)c12 [Example 64, 4-(3-amino-4-chloro-1H-indazol-5-yl)-3-chloro-N-((1s,3s)-3-hydroxy-3-(trifluoromethyl)cyclobutyl)benzenesulfonamide] | 0.474 µM

Row | Structure (SMILES) | EC50
19 | Nc1n[nH]c2ccc(-c3ccc(S(=O)(=O)N4CC[C@@H](O)C4)cc3Cl)c(Cl)c12 [Example 8, (R)-1-((4-(3-amino-4-chloro-1H-indazol-5-yl)-3-chlorophenyl)sulfonyl)pyrrolidin-3-ol] | 3.6 µM
20 | COc1c(-c2ccc(S(=O)(=O)N[C@@H]3CCC[C@@H]3O)cc2Cl)ccc2[nH]nc(N)c12 [Example 74] | 0.286 µM
21 | Cc1cc(S(=O)(=O)N[C@H]2CCC[C@H]2O)ccc1-c1ccc2[nH]nc(N)c2c1C [Example 48, 4-(3-amino-4-methyl-1H-indazol-5-yl)-N-((1S,2R)-2-hydroxycyclopentyl)-3-methylbenzenesulfonamide] | 0.854 µM
22 | Nc1n[nH]c2ccc(-c3ccc(S(=O)(=O)NC4CC(O)(C(F)(F)F)C4)cc3Cl)c(F)c12 (stereo not shown) [Example 72, 4-(3-amino-4-fluoro-1H-indazol-5-yl)-3-chloro-N-((1s,3s)-3-hydroxy-3-(trifluoromethyl)cyclobutyl)benzenesulfonamide] | 0.177 µM
23 | Cc1cc(S(=O)(=O)N[C@]2(C)C[C@H](O)C2)ccc1-c1ccc2[nH]nc(N)c2c1C [Example 36, 4-(3-amino-4-methyl-1H-indazol-5-yl)-N-((1s,3s)-3-hydroxy-1-methylcyclobutyl)-3-methylbenzenesulfonamide] | 0.806 µM
24 | Nc1n[nH]c2ccc(-c3ccc(S(=O)(=O)N4CC[C@@H](O)C4)cc3F)c(Cl)c12 [Example 6, (R)-1-((4-(3-amino-4-chloro-1H-indazol-5-yl)-3-fluorophenyl)sulfonyl)pyrrolidin-3-ol] | 4.41 µM
25 | Cc1c(-c2ccc(S(=O)(=O)N3CC(F)(F)C[C@H]3CO)cc2Cl)ccc2[nH]nc(N)c12 [Example 56, (S)-(1-((4-(3-amino-4-methyl-1H-indazol-5-yl)-3-chlorophenyl)sulfonyl)-4,4-difluoropyrrolidin-2-yl)methanol] | 0.764 µM
26 | Cc1cc(S(=O)(=O)N2CC(F)(F)C[C@H]2CO)ccc1-c1ccc2[nH]nc(N)c2c1F [Example 44, (S)-(1-((4-(3-amino-4-fluoro-1H-indazol-5-yl)-3-methylphenyl)sulfonyl)-4,4-difluoropyrrolidin-2-yl)methanol] | 1.19 µM
27 | Cc1cc(S(=O)(=O)N2CCC(C#N)CC2)ccc1-c1ccc2[nH]nc(N)c2c1C [Example 23, 1-((4-(3-amino-4-methyl-1H-indazol-5-yl)-3-methylphenyl)sulfonyl)piperidine-4-carbonitrile] | 1.85 µM
28 | Cc1cc(S(=O)(=O)N2CC(F)(F)C[C@@H]2CO)ccc1-c1ccc2[nH]nc(N)c2c1C [Example 88, (R)-(1-((4-(3-amino-4-methyl-1H-indazol-5-yl)-3-methylphenyl)sulfonyl)-4,4-difluoropyrrolidin-2-yl)methanol] | 0.22 µM
29 | Cc1cc(S(=O)(=O)N2CCCC(F)(F)C2)ccc1-c1ccc2[nH]nc(N)c2c1C [Example 79, 5-(4-((3,3-difluoropiperidin-1-yl)sulfonyl)-2-methylphenyl)-4-methyl-1H-indazol-3-amine] | 1.52 µM
30 | Cc1cc(S(=O)(=O)NC2CC(O)(c3ccccc3)C2)ccc1-c1ccc2[nH]nc(N)c2c1C (stereo not shown) [Example 52, 4-(3-amino-4-methyl-1H-indazol-5-yl)-N-(3-hydroxy-3-phenylcyclobutyl)-3-methylbenzenesulfonamide] | 0.578 µM
31 | Cc1cc(S(=O)(=O)N2CCC(C)(O)C2)ccc1-c1ccc2[nH]nc(N)c2c1C (stereo not shown) [Example 57, 1-((4-(3-amino-4-methyl-1H-indazol-5-yl)-3-methylphenyl)sulfonyl)-3-methylpyrrolidin-3-ol] | 2.71 µM
32 | Nc1n[nH]c2ccc(-c3ccc(S(=O)(=O)NC4CC(F)(F)C4)cc3Cl)c(Cl)c12 [Example 67, 4-(3-amino-4-chloro-1H-indazol-5-yl)-3-chloro-N-(3,3-difluorocyclobutyl)benzenesulfonamide] | 0.535 µM
33 | COc1c(-c2ccc(S(=O)(=O)NC3CC(O)(C(F)(F)F)C3)cc2C)ccc2[nH]nc(N)c12 (stereo not shown) [Example 70, 4-(3-amino-4-methoxy-1H-indazol-5-yl)-N-((1s,3s)-3-hydroxy-3-(trifluoromethyl)cyclobutyl)-3-methylbenzenesulfonamide] | 0.282 µM
34 | Cc1cc(S(=O)(=O)N2CC(F)(F)C[C@H]2C(N)=O)ccc1-c1ccc2[nH]nc(N)c2c1C [Example 81, (S)-1-((4-(3-amino-4-methyl-1H-indazol-5-yl)-3-methylphenyl)sulfonyl)-4,4-difluoropyrrolidine-2-carboxamide] | 0.372 µM
35 | Cc1c(-c2ccc(S(=O)(=O)N3CC[C@@H](O)C3)cc2Cl)ccc2[nH]nc(N)c12 [Example 2, (R)-1-((4-(3-amino-4-methyl-1H-indazol-5-yl)-3-chlorophenyl)sulfonyl)pyrrolidin-3-ol] | 0.908 µM

Same assay, conditions: Mus musculus; Table 1; read-out: Scx-Luc (EC50 uM)

Row | Structure (SMILES) | EC50
36 | Cc1cnc(Nc2ccc(OCCN3CCCC3)cc2)nc1Nc1cccc(S(=O)(=O)NC(C)(C)C)c1 [reference compound] | 0.62 µM

Same assay, conditions: Mus musculus; assays described above (Scx-Luc and ex vivo); read-out: EC50 in the assays described above

Row | Structure (SMILES) | EC50
37 | Cc1cc(S(=O)(=O)NC2CCN(C)CC2)ccc1-c1ccc2[nH]nc(N)c2c1C [4-(3-amino-4-methyl-1H-indazol-5-yl)-3-methyl-N-(1-methylpiperidin-4-yl)benzenesulfonamide] | > 10 µM
